ChEMBL document CHEMBL3875179 (Eur J Med Chem, 2016)
pIC50: −log10 of the molar value.

Tests used:
[1] = target: Cholinesterase (Equus caballus) (UniProt P81908); assay: Inhibition of equine serum BChE using butyrylthiocholine iodide as substrate at 10^-4 M preincubated for 15 mins followed by substrate addition and measured for 5 mins by Ellmans method
[2] = target: Cholinesterase (Equus caballus) (UniProt P81908); assay: Inhibition of equine serum BChE using butyrylthiocholine iodide as substrate at 10^-3 M preincubated for 15 mins followed by substrate addition and measured for 5 mins by Ellmans method
[3] = Cytotoxicity against mouse NIH/3T3 cells after 24 hrs by MTT assay; type: toxicity, NIH3T3
[4] = Selectivity index, ratio of IC50 for mouse NIH/3T3 cells to IC50 for electric eel AChE
Acetylcholinesterase = Acetylcholinesterase (Electrophorus electricus, UniProt O42275); assay: Inhibition of electric eel AChE using acetylthiocholine iodide as substrate preincubated for 15 mins followed by substrate addition and measured for 5 mins by Ellmans method
Chain of Acetylcholinesterase (O42275 whole entry): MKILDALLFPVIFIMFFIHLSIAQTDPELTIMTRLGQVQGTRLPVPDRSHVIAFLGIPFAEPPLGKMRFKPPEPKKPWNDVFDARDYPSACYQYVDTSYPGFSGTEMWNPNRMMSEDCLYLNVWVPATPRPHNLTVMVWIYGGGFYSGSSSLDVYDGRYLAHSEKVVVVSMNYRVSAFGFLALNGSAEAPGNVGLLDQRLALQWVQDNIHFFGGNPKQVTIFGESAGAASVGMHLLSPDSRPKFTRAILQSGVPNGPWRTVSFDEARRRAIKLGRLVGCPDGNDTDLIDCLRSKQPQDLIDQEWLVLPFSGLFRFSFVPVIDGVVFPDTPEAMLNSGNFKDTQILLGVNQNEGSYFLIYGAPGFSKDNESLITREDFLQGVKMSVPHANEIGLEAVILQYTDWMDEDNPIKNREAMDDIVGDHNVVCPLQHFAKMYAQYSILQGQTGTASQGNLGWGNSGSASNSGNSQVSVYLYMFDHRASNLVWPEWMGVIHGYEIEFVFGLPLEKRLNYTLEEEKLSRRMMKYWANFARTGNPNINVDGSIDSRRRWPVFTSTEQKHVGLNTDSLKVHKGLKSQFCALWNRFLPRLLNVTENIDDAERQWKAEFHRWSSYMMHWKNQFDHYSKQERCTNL

Chain of Cholinesterase (Equus caballus) (P81908 whole entry): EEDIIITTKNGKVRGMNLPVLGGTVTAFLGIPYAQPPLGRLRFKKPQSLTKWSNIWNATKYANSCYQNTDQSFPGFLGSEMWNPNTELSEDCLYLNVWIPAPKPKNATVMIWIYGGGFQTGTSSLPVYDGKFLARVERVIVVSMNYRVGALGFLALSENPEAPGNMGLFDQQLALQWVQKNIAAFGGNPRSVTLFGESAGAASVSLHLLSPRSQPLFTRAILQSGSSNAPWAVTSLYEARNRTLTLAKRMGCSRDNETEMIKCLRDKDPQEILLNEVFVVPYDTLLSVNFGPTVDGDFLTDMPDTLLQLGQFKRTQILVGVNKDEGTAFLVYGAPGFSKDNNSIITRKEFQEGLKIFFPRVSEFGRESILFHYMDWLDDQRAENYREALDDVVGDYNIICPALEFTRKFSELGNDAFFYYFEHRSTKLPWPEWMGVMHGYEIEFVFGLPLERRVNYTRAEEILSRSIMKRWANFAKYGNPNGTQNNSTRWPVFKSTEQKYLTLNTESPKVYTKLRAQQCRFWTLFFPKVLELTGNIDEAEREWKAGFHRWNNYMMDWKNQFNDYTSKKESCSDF

Structure (SMILES)	inhibition [1] [%]	inhibition [2] [%]	IC50 at 24 h [3] [µM]	Ratio IC50 [4]	pIC50 (Acetylcholinesterase)
COc1ccc2c(c1)C(=O)/C(=C\c1ccc(N3CCN(C)CC3)cc1)C2	9.63	14.7			
CCN1CCN(c2ccc(/C=C3/Cc4cc(OC)c(OC)cc4C3=O)cc2)CC1	8.56	16.9			
COc1cc2c(cc1OC)C(=O)/C(=C\c1ccc(N3CCN(C)CC3)cc1)C2	8.55	19.2			
COc1cc2c(cc1OC)C(=O)C(CC1CCN(CC(=O)Nc3ccc(Cl)cc3)CC1)C2 (configuration not stated)	2.77	5.39			
COc1ccc2c(c1)C(=O)/C(=C\c1ccc(N3CCN(CCO)CC3)cc1)C2	1.25	3.45			
COc1cc2c(cc1OC)C(=O)C(CC1CCN(CC(=O)Nc3nc4ccc(C)cc4s3)CC1)C2 (configuration not stated)	2.08	4.29			
COc1ccc(NC(=O)CN2CCC(CC3Cc4cc(OC)c(OC)cc4C3=O)CC2)cc1OC (configuration not stated)	1.29	5.85			
COc1ccc2nc(NC(=O)CN3CCC(CC4Cc5cc(OC)c(OC)cc5C4=O)CC3)sc2c1 (configuration not stated)	3.19	5.33			
CCN1CCN(c2ccc(/C=C3/Cc4cc(OC)ccc4C3=O)cc2)CC1	8.77	15.1			
COc1cc2c(cc1OC)C(=O)C(CC1CCN(CC(=O)Nc3ccccc3)CC1)C2 (configuration not stated)	2.58	5			
COc1cc2c(cc1OC)C(=O)/C(=C\c1ccc(N3CCN(CCN(C)C)CC3)cc1)C2	12.1	17	320	50	5.20
COc1cc2c(cc1OC)C(=O)/C(=C\c1ccc(N3CCN(c4ccccc4)CC3)cc1)C2	1.08	3.22			
COc1cc2c(cc1OC)C(=O)/C(=C\c1ccc(N3CCN(CCCN(C)C)CC3)cc1)C2	13.9	18.7	78		5.31
COc1ccc2c(c1)C/C(=C/c1ccc(N3CCN(CCO)CC3)cc1)C2=O	5.91	7.63			
COc1cc2c(cc1OC)C(=O)C(CC1CCN(CC(=O)Nc3nc4ccc(F)cc4s3)CC1)C2 (configuration not stated)	3.1	4.89			
COc1cc2c(cc1OC)C(=O)C(CC1CCN(CC(=O)Nc3nc4cc(OC)c(OC)cc4s3)CC1)C2 (configuration not stated)	2.05	3.77			
COc1ccc2c(c1)C/C(=C/c1ccc(N3CCN(CCN(C)C)CC3)cc1)C2=O	9.56	15.2			
COc1ccc2c(c1)C/C(=C/c1ccc(N3CCCC3)cc1)C2=O	1.25	3.08			
COc1cc2c(cc1OC)C(=O)/C(=C\c1ccc(N3CCCC3)cc1)C2	2.77	4.98			

Structure (SMILES)	inhibition [1] [%]	inhibition [2] [%]	IC50 at 24 h [3] [µM]	Ratio IC50 [4]	pIC50 (Acetylcholinesterase)
CCN1CCN(c2ccc(/C=C3/Cc4ccc(OC)cc4C3=O)cc2)CC1	4.2	5.05			
CCN(CC)c1ccc(/C=C2/Cc3ccc(OC)cc3C2=O)cc1	1.65	2.8			
COc1ccc2c(c1)C(=O)/C(=C\c1ccc(N3CCN(CCCN(C)C)CC3)cc1)C2	10.1	16.1	78	13	5.22
COc1ccc2c(c1)C/C(=C/c1ccc(N3CCN(C)CC3)cc1)C2=O	7.56	12.9			
COc1cc2c(cc1OC)C(=O)/C(=C\c1ccc(N3CCN(CCO)CC3)cc1)C2	7.55	18.2			
COc1cc2c(cc1OC)C(=O)C(CC1CCN(CC(=O)Nc3nc4ccc(Cl)cc4s3)CC1)C2 (configuration not stated)	3.09	6.21			
COc1ccc2c(c1)C(=O)/C(=C\c1ccc(N3CCN(CCN(C)C)CC3)cc1)C2	10.6	17.2			
COc1cc2c(cc1OC)C(=O)C(CC1CCN(CC(=O)Nc3ccc(C)cc3)CC1)C2 (configuration not stated)	3.2	5.89			
CCN(CC)c1ccc(/C=C2/Cc3cc(OC)c(OC)cc3C2=O)cc1	1.96	3.76			
COc1ccc2c(c1)C/C(=C/c1ccc(N3CCN(c4ccccc4)CC3)cc1)C2=O	2.38	5.2			
CCN(CC)c1ccc(/C=C2/Cc3cc(OC)ccc3C2=O)cc1	5.27	10.3			
COc1ccc2c(c1)C/C(=C/c1ccc(N3CCN(CCCN(C)C)CC3)cc1)C2=O	11.3	16	230	27	5.07
COc1cc2c(cc1OC)C(=O)C(CC1CCN(CC(=O)Nc3nc4ccc([N+](=O)[O-])cc4s3)CC1)C2 (configuration not stated)	1.13	4.18			
COc1ccc(NC(=O)CN2CCC(CC3Cc4cc(OC)c(OC)cc4C3=O)CC2)cc1 (configuration not stated)	1.33	4.28			
COc1cc2c(cc1OC)C(=O)C(CC1CCN(CC(=O)Nc3ccc(F)cc3)CC1)C2 (configuration not stated)	1.99	4.75			
COc1ccc2c(c1)C(=O)/C(=C\c1ccc(N3CCCC3)cc1)C2	3.18	5.7			
COc1ccc2c(c1)C(=O)/C(=C\c1ccc(N3CCN(c4ccccc4)CC3)cc1)C2	1.06	1.73			
COc1cc2c(cc1OC)C(=O)C(CC1CCN(CC(=O)Nc3nc4ccccc4s3)CC1)C2 (configuration not stated)	2.31	5.23			
COc1cc2c(cc1OC)C(=O)C(CC1CCN(CC(=O)Nc3ccc([N+](=O)[O-])cc3)CC1)C2 (configuration not stated)	2.69	4.88			
